target: MAPK14 (human) (UniProt Q16539); experiment: Inhibition of MAPK14 Kinase Activity; conditions: not given
Sequence (Q16539 whole entry, looked up): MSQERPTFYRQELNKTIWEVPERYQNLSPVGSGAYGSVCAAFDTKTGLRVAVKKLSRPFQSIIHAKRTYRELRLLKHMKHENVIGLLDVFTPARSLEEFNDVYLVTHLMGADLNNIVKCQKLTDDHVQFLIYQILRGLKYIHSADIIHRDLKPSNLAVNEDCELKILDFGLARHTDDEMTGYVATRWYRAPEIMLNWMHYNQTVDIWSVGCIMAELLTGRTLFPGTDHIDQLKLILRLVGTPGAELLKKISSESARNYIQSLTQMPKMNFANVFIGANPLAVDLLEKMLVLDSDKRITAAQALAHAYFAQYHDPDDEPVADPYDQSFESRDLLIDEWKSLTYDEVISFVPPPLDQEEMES

Row | Structure (SMILES) | IC50
1 | CN(C)CCN1CCN(C(=O)c2sc(C(C)(C)C)cc2NC(=O)Nc2ccc(F)c(Cl)c2Cl)CCC1=O | < 5 µM
2 | CC(C)(C)c1cc(C(=O)N2CCNC(=O)CC2)c(NC(=O)Nc2ccc(O)c(Cl)c2Cl)s1 | < 5 µM
3 | CON(C)C(=O)CN1CCN(C(=O)c2cc(C(C)(C)C)sc2NC(=O)Nc2ccc(F)c(Cl)c2Cl)C(C)(C)C1=O | < 5 µM
4 | CC(C)(C)c1cc(C(=O)N2CCNC(=O)CC2)c(NC(=O)Nc2ccccc2I)s1 | < 5 µM
5 | Cc1ccccc1NC(=O)Nc1sc(C(C)(C)C)cc1C(=O)N1CCN(CCN(C)C)C(=O)C1(C)C | < 5 µM
6 | CCc1ccccc1NC(=O)Nc1sc(C(C)(C)C)cc1C(=O)N1CCNC(=O)CC1 | < 5 µM
7 | CN(C)CCN1CCN(C(=O)c2cc(C(C)(C)C)sc2NC(=O)Nc2ccccc2C(F)(F)F)C(C)(C)C1=O | < 5 µM
8 | CC(C)(C)c1nc(C(=O)N2CCC(=O)N(CCC(N)=O)CC2)c(NC(=O)Nc2cccc(Cl)c2Cl)s1 | < 5 µM
9 | CN(C)CCN1CCN(C(=O)c2cc(C(C)(C)C)sc2NC(=O)Nc2cccnc2Cl)CCC1=O | < 5 µM
10 | CC(C)(C)c1nc(C(=O)N2CCC(=O)N(CCN)CC2)c(NC(=O)Nc2cccc(Cl)c2Cl)s1 | < 5 µM
11 | CC(C)(C)c1cc(C(=O)N2CCNC(=O)CC2)c(NC(=O)Nc2cccc3c2OCO3)s1 | < 5 µM
12 | COc1cccc(NC(=O)Nc2sc(C(C)(C)C)cc2C(=O)N2CCC(=O)N(CCN(C)C)CC2)c1Cl | < 5 µM
13 | CN(C)CCNC(=O)CN1CCN(C(=O)c2cc(C(C)(C)C)sc2NC(=O)Nc2ccc(F)c(Cl)c2Cl)C(C)(C)C1=O | < 5 µM
14 | CC(C)(C)c1cc(C(=O)N2CCNC(=O)CC2)c(NC(=O)Nc2c(Cl)cncc2Cl)s1 | < 5 µM
15 | CC(C)(C)c1cc(C(=O)N2CCNC(=O)CC2)c(NC(=O)Nc2ccccc2Br)s1 | < 5 µM
16 | CC(C)(C)c1cc(C(=O)N2CCN(C(=O)CCCC[C@@H]3SC[C@@H]4NC(=O)N[C@@H]43)CC2)c(NC(=O)Nc2cccc(Cl)c2Cl)s1 | < 5 µM
17 | CN(C)CCN1CCN(C(=O)c2cc(C(C)(C)C)sc2NC(=O)Nc2ccccc2C(C)(C)C)C(C)(C)C1=O | < 5 µM
18 | CCC1(C)C(=O)N(CC(=O)NCCN2CCCC2)CCN1C(=O)c1cc(C(C)(C)C)sc1NC(=O)Nc1cccc(Cl)c1Cl (stereo not drawn) | < 5 µM
19 | CN(C)CCNC(=O)CN1CCN(C(=O)c2cc(C(C)(C)C)sc2NC(=O)Nc2ccc(F)cc2Cl)C(C)(C)C1=O | < 5 µM
20 | CCC1(C)C(=O)N(CC(=O)NCCN2CCOCC2)CCN1C(=O)c1cc(C(C)(C)C)sc1NC(=O)Nc1cccc(Cl)c1Cl (stereo not drawn) | < 5 µM
21 | CC(C)(C)c1cc(C(=O)N2CCNC(=O)CC2)c(NC(=O)Nc2ccc(Cl)cc2Cl)s1 | < 5 µM
22 | CCc1ccccc1NC(=O)Nc1sc(C(C)(C)C)cc1C(=O)N1CCN(CCN(C)C)C(=O)C1(C)C | < 5 µM
23 | COc1ccc(NC(=O)Nc2sc(C(C)(C)C)cc2C(=O)N2CCNC(=O)CC2)c(Cl)c1Cl | < 5 µM
24 | CCC1(C)C(=O)N(CC(=O)NCCN(C)C)CCN1C(=O)c1cc(C(C)(C)C)sc1NC(=O)Nc1ccc(F)c(Cl)c1Cl (stereo not drawn) | < 5 µM
25 | CN(C)CCNC(=O)CN1CCN(C(=O)c2cc(C(C)(C)C)sc2NC(=O)Nc2ccc(F)c(F)c2Cl)CCC1=O | < 5 µM
26 | CC(C)(C)c1cc(C(=O)N2CCNC(=O)CC2)c(NC(=O)Nc2ccccc2Cl)s1 | < 5 µM
27 | CC(C)(C)c1cc(C(=O)NCC(F)(F)F)c(NC(=O)Nc2cccc(Cl)c2Cl)s1 | < 5 µM
28 | CCC1(C)C(=O)N(CCN(C)C)CCN1C(=O)c1cc(C(C)(C)C)sc1NC(=O)Nc1ccc(F)cc1 (stereo not drawn) | < 5 µM
29 | O=C(Nc1cc(C(=O)N2CCS(=O)(=O)CC2)cc(C(F)(F)F)c1)Nc1cccc(Cl)c1Cl | < 5 µM
30 | CN(C)CCNC(=O)CN1CCN(C(=O)c2sc(C(C)(C)C)cc2NC(=O)Nc2ccnc(Cl)c2Cl)C(C)(C)C1=O | < 5 µM

The next lines start with the values.

Row | IC50 | Structure (SMILES)
31 | < 5 µM | CC(C)(C)c1cc(C(=O)N2CCN(CC(=O)NO)C(=O)C2(C)C)c(NC(=O)Nc2ccc(F)c(Cl)c2Cl)s1
32 | < 5 µM | CON(C)C(=O)CN1CCN(C(=O)c2cc(C(C)(C)C)sc2NC(=O)Nc2cccc(Cl)c2Cl)C(C)(C)C1=O
33 | < 5 µM | CCC(C)(C)c1cc(NC(=O)Nc2cccc(Cl)c2Cl)c(C(=O)N2CCNC(=O)C2(C)C)[nH]1
34 | < 5 µM | CC(C)(C)c1cc(C(=O)N2CCN(CC(N)=O)C(=O)C2(C)C)c(NC(=O)Nc2cccc(Cl)c2Cl)s1
35 | < 5 µM | CC(C)(C)c1cc(C(=O)N2CCNC(=O)C2(C)C)c(NC(=O)Nc2cccc3c2OCO3)s1
36 | < 5 µM | CN(C)CCNC(=O)CN1CCN(C(=O)c2cc(C(C)(C)C)[nH]c2NC(=O)Nc2cccc(Cl)c2Cl)C(C)(C)C1=O
37 | < 5 µM | CCC1(C)C(=O)N(CC(=O)N(C)OC)CCN1C(=O)c1cc(C(C)(C)C)sc1NC(=O)Nc1cccc(Cl)c1Cl (stereo not drawn)
38 | < 5 µM | CC(C)(C)c1cc(C(=O)N2CCNCC2)c(NC(=O)Nc2cccc(Cl)c2Cl)s1
39 | < 5 µM | CN(C)CCN(C)C(=O)CN1CCN(C(=O)c2cc(C(C)(C)C)sc2NC(=O)Nc2cccc(Cl)c2Cl)C(C)(C)C1=O
40 | < 5 µM | CC(=O)NC1CCCN(C(=O)c2cc(C(C)(C)C)sc2NC(=O)Nc2cccc(Cl)c2Cl)C1 (stereo not drawn)
41 | < 5 µM | CC(C)(C)c1cc(C(=O)N2CCNC(=O)C2(C)C)c(NC(=O)Nc2cccc3ccccc23)s1
42 | < 5 µM | COC(=O)CC1(C)C(=O)NCCN1C(=O)c1sc(C(C)(C)C)cc1NC(=O)Nc1ccc(F)c(F)c1Cl (stereo not drawn)
43 | < 5 µM | CCC1(C)C(=O)N(CC(=O)OC)CCN1C(=O)c1cc(C(C)(C)C)sc1NC(=O)Nc1cccc(Cl)c1Cl (stereo not drawn)
44 | < 5 µM | Cc1cccc(NC(=O)Nc2sc(C(C)(C)C)cc2C(=O)N2CCNC(=O)C2(C)C)c1Cl
45 | < 5 µM | CN(C)CCNC(=O)CN1CCN(C(=O)c2sc(C(C)(C)C)cc2NC(=O)Nc2cccc(Cl)c2Cl)C(C)(C)C1=O
46 | < 5 µM | Cc1ccccc1NC(=O)Nc1sc(C(C)(C)C)cc1C(=O)N1CCNC(=O)C1(C)C
47 | < 5 µM | CN(C)CCN1CCN(C(=O)c2[nH]c(C(C)(C)C)cc2NC(=O)Nc2cccc(Cl)c2Cl)CCC1=O
48 | < 5 µM | COc1ccc(CN2CCN(C(=O)c3cc(C(C)(C)C)sc3NC(=O)Nc3cccc(Cl)c3Cl)C(C)(C)C2=O)cc1
49 | < 5 µM | CC(C)(C)c1cc(C(=O)N2CCNC(=O)C2(C)CCO)c(NC(=O)Nc2ccc(F)c(Cl)c2Cl)s1 (stereo not drawn)
50 | < 5 µM | CC(C)(C)c1cc(C(=O)N2CCN(CC(N)=O)C(=O)C2(C)CC(N)=O)c(NC(=O)Nc2cccc(Cl)c2Cl)s1 (stereo not drawn)

Row | IC50 | Structure (SMILES)
51 | < 5 µM | CC(C)(C)c1cc(NC(=O)Nc2cccc(Cl)c2Cl)c(C(=O)N2CCNC(=O)C2(C)C)s1
52 | < 5 µM | COC(=O)CCN1CCN(C(=O)c2cc(C(C)(C)C)sc2NC(=O)Nc2cccc(Cl)c2Cl)C(C)(C)C1=O
53 | < 5 µM | CCC1(C)C(=O)NCCN1C(=O)c1cc(C(C)(C)C)sc1NC(=O)Nc1cccc(Cl)c1Cl (stereo not drawn)
54 | < 5 µM | CC(C)(C)c1cc(C(=O)N2CCN(CCC(=O)N(CCO)CCO)C(=O)C2(C)C)c(NC(=O)Nc2cccc(Cl)c2Cl)s1
55 | < 5 µM | CC(C)(C)c1cc(NC(=O)Nc2ccc(F)c(Cl)c2Cl)c(C(=O)N2CCNS(=O)(=O)CC2)[nH]1
56 | < 5 µM | COC(=O)CC1(C)C(=O)NCCN1C(=O)c1cc(C(C)(C)C)sc1NC(=O)Nc1ccc(F)c(Cl)c1Cl (stereo not drawn)
57 | < 5 µM | CC(C)(C)c1cc(C(=O)N2CCNC(=O)C2(C)C)c(NC(=O)Nc2ccccc2C(C)(C)C)s1
58 | < 5 µM | CC(C)(C)OC(=O)N1CCN(C(=O)c2cc(C(C)(C)C)sc2NC(=O)Nc2cccc(Cl)c2Cl)CC1(C)C
59 | < 5 µM | CN(C)C(=O)CN1CCN(C(=O)c2cc(C(C)(C)C)sc2NC(=O)Nc2cccc(Cl)c2Cl)C(C)(C)C1=O
60 | < 5 µM | CC(C)(C)c1cc(C(=O)N2CCN(CC(=O)NCC(F)(F)F)C(=O)C2(C)C)c(NC(=O)Nc2cccc(Cl)c2Cl)s1
61 | < 5 µM | COC(=O)CC1(C)C(=O)NCCN1C(=O)c1cc(C(C)(C)C)sc1NC(=O)Nc1cccc(Cl)c1Cl (stereo not drawn)
62 | < 5 µM | CN1CCN(C(=O)c2oc(C(C)(C)C)cc2NC(=O)Nc2cccc(Cl)c2Cl)CCS1(=O)=O
63 | < 5 µM | CCc1ccccc1NC(=O)Nc1sc(C(C)(C)C)cc1C(=O)N1CCNC(=O)C1(C)C
64 | < 5 µM | CCC1C(=O)NCCN1C(=O)c1cc(C(C)(C)C)sc1NC(=O)Nc1ccc(F)c(Cl)c1Cl (stereo not drawn)
65 | < 5 µM | CN(C)CCN1CCN(C(=O)c2[nH]c(C(C)(C)C)cc2NC(=O)Nc2ccc(F)c(Cl)c2Cl)CCC1=O
66 | < 5 µM | COc1cccc(NC(=O)Nc2sc(C(C)(C)C)cc2C(=O)N2CCN(CCN(C)C)C(=O)C2(C)C)c1Cl
67 | < 5 µM | CC(C)(C)c1cc(NC(=O)Nc2cccc(Cl)c2Cl)c(C(=O)N2CCS(=O)(=O)CC2)o1
68 | < 5 µM | COC(=O)CC1CC(=O)NCCN1C(=O)c1cc(C(C)(C)C)sc1NC(=O)Nc1cccc(Cl)c1Cl (stereo not drawn)
69 | < 5 µM | CN(C)CCN1CCN(C(=O)c2sc(C(C)(C)C)cc2NC(=O)Nc2ccc(F)c(Cl)c2Cl)C(C)(C)C1=O
70 | < 5 µM | Cc1cccc(Cl)c1NC(=O)Nc1cc(C(C)(C)C)sc1C(=O)N1CCNC(=O)C1(C)C

same assay, conditions: concentration not given here

Row | Structure (SMILES) | inhibition
71 | CC(C)(C)c1cc(C(=O)N2CCNS(=O)(=O)CC2)c(NC(=O)Nc2cc(Cl)cc(Cl)c2)s1 | 76 to 100%
72 | CC1C(=O)NCCN1C(=O)c1cc(C(C)(C)C)sc1NC(=O)Nc1ccc2ccccc2c1 (stereo not drawn) | 76 to 100%
73 | COCCOCCN1CCN(C(=O)c2cc(C(C)(C)C)sc2NC(=O)Nc2cccc(Cl)c2Cl)CCC1=O | 76 to 100%
74 | CC(C)(C)c1cc(C(=O)N2CCNC(=O)CC2)c(NC(=O)Nc2ccc(C#N)c(Cl)c2)s1 | 76 to 100%
75 | CC(C)(C)c1nc(NC(=O)Nc2cccc3ccccc23)c(C(=O)N2CCNC(=O)CC2)s1 | 76 to 100%
76 | CC(C)(C)c1cc(C(=O)N2CCNS(=O)(=O)CC2)c(NC(=O)Nc2ccc3ocnc3c2)s1 | 76 to 100%
77 | Cn1ccc(NC(=O)Nc2sc(C(C)(C)C)cc2C(=O)N2CCNS(=O)(=O)CC2)n1 | 26 to 50%
78 | CC(C)(C)c1cc(C(=O)N2CCC(=O)N(CCC(N)=O)CC2)c(NC(=O)Nc2cccc(Cl)c2Cl)s1 | 76 to 100%
79 | COc1ccc(NC(=O)Nc2sc(C(C)(C)C)cc2C(=O)N2CCNC(=O)CC2)cc1Cl | 76 to 100%
80 | CC(C)(C)c1cc(C(=O)N2CCNC(=O)C2)c(NC(=O)Nc2cccc3ccccc23)s1 | 76 to 100%
81 | CNC(=O)Nc1cc(C(C)(C)C)sc1C(=O)N1CCNC(=O)CC1 | 0 to 25%

Now from value to compound:

Row | inhibition | Structure (SMILES)
82 | 76 to 100% | CN(C)CCN1CCN(C(=O)c2cc(C(C)(C)C)sc2NC(=O)Nc2cccc(Cl)c2Cl)CCC1=O
83 | 76 to 100% | CC1(C)OCC(CN2CCN(C(=O)c3cc(C(C)(C)C)sc3NC(=O)Nc3cccc(Cl)c3Cl)CCC2=O)O1 (stereo not drawn)
